pIC50: −log10 of the molar value.
Target: Sodium/potassium-transporting ATPase (Rattus norvegicus)
Experiment: Inhibitory activity against rat kidney Na+/K+ ATPase was determined by fiske subbarow method

C=C[C@@](C)(O)CC/C=C(\C)C(=O)OC1C(COCCCC2OC(CCCOOC(=O)C34CCC(C)(C)CC3C3=CCC5[C@@]6(C)CCC(OC7OC(CCOCCC8OCC(O)C(O)C8OC8OCC(O)C(O)C8O)C(O)C(O)C7O)C(C)(C)C6CC[C@@]5(C)[C@]3(C)C[C@H]4O)C(OCC3OC(C)C(OCCCCCCCCC4OCC(O)C(OC5OCC(O)C(O)C5O)C4O)C(O)C3O)C(O)C2O)OC(C)C(O)C1OC(=O)/C(=C/CC[C@](C)(O)C=C)CO (stereo partly specified)
pIC50: 3.40

Reference: ChEMBL document CHEMBL1152076, “Alteration of Na+ permeability in human erythrocytes as studied by 23Na-NMR and inhibition of the kidney Na+,K+-ATPase activities with saponins: Interaction of Gleditsia saponins with human erythrocyte membranes” (Bioorg Med Chem Lett, 1995)
